In patent US12384753B2, “17-beta-hydroxysteroid dehydrogenase type 13 inhibitors and methods of use thereof” (Enanta Pharmaceuticals, Inc., priority 2021, dated 2025) one finds IC50 data, which are given here for 62 compounds.

Chain of Recombinant human HSD17B13 (Q7Z5P4 20-300): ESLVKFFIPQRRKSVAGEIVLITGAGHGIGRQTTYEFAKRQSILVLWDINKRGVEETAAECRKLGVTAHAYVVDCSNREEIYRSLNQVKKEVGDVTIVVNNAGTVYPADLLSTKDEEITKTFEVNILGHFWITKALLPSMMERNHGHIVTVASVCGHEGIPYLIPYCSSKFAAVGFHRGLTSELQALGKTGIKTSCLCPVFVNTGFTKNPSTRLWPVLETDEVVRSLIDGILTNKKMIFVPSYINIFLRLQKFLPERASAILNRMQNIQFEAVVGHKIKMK

The assay addresses Recombinant human HSD17B13 (Homo sapiens (Human), UniProt Q7Z5P4). Put plainly: HSD17B13 rapid-fire mass spectrometry assay (RF/MS assay). The conditions noted are these: inhibition of HSD17B13; LTB4 10 μM, NAD+ 0.5 mM, RT 3 h; IC50 ranges A-E. Format: biochemical. A digest of the protocol: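 Product 12-oxo-LTB4 and substrate LTB4 quantified by RapidFire triple-quad MS in negative mode, giving percent conversion. Reaction: 80 nM recombinant hHSD17B13, 10 μM LTB4, 0.5 mM NAD+, compound up to 100 μM, pH 7.5, RT, 3 h. Variable-slope fit gave IC50; run in duplicate.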
As for `COC/C=C/c1ccc(-c2ncc(S(=O)(=O)Nc3ccc(C(=O)O)cc3OC)s2)cc1` [Example 449, (E)-3-methoxy-4-((2-(4-(3-methoxyprop-1-en-1-yl)phenyl)thiazole)-5-sulfonamido)benzoic acid], the IC50 lay in the range of 100 to 500 nM. Take `COc1cc(C(=O)O)ccc1NS(=O)(=O)c1csc(N2CCCC(Oc3ccccc3)C2)n1` (centres unmarked) [Example 276]: the half-inhibitory concentration (IC50) fell in the range of 1000 to 100000 nM. Take `COc1cccc(C#Cc2nc(S(=O)(=O)Nc3cc(F)c(C(=O)O)cc3OC)cs2)c1` [Example 242]: the IC50 is less than 100 nM. On to `COc1cc(C(=O)O)ccc1NS(=O)(=O)c1csc(-c2ccc([C@H]3CC[C@@H](C(F)(F)F)CC3)cc2)n1` [Example 608], for which the half-maximal inhibitory concentration (IC50) is 100 to 500 nM. With `COc1cc(C(=O)O)c(F)cc1NS(=O)(=O)c1csc(-c2ccc(CC3CCCCC3)cc2)n1` [Example 624], the half-maximal inhibitory concentration (IC50) is 100 to 500 nM.

As to `COc1cc(C(=O)O)c(F)cc1NS(=O)(=O)c1csc(-c2ccc(C3=CCC(C)(C)CC3)c(C(N)=O)c2)n1` [Example 530], the IC50 lay within 500 to 1000 nM.

Consider `COc1cc(C(=O)O)c(F)cc1NS(=O)(=O)c1csc(-c2ccc([C@H]3CC[C@@H](C(C)(C)C)CC3)c(F)c2C)n1` [Example 595], for which the IC50 was in the range of 100 to 500 nM.

On to `COc1cc(C(=O)O)c(F)cc1NS(=O)(=O)c1ccc(-c2ccc(Cl)cc2)s1` [Example 232], for which the half-inhibitory concentration (IC50) is less than 100 nM. On to `COc1cc(C(=O)O)c(F)cc1NS(=O)(=O)c1csc(-c2ccc(-c3ccc(C(F)(C(F)(F)F)C(F)(F)F)cc3)c(OC(C)C)c2F)n1` [Example 793], for which the half-inhibitory concentration (IC50) was less than 100 nM. Next, `COc1cc(C(=O)O)ccc1NS(=O)(=O)c1cccc(C#Cc2cccc(OC(F)(F)F)c2)n1` [Example 463, 3-methoxy-4-((6-((3-(trifluoromethoxy)phenyl)ethynyl)pyridine)-2-sulfonamido)benzoic acid]: 100 to 500 nM. For the compound `COc1cc(C(=O)O)ccc1NS(=O)(=O)N1CCN(c2nccs2)CC1` [Example 314], the half-inhibitory concentration (IC50) was more than 100000 nM. For `COc1cc(C(=O)O)c(F)cc1NS(=O)(=O)c1csc(-c2ccc(C3CCC(C)(C)CC3)cc2C(F)F)n1` [Example 591], the half-maximal inhibitory concentration (IC50) is less than 100 nM. For the compound `COc1ccc(NS(=O)(=O)c2cnc(-c3ccc(F)cc3)s2)cc1Cl` [Example 113], the IC50 was in the range of 1000 to 100000 nM. As to `COc1cc(C(=O)O)ccc1NS(=O)(=O)c1csc(-c2ccc(C#Cc3ccc(F)cc3)cc2)n1` [Example 486], the 50% inhibitory concentration (IC50) fell in the range of 500 to 1000 nM. `COc1cc(C(=O)O)c(F)cc1NS(=O)(=O)c1cnc(-c2ccc(C3=CC=C(F)CC3)cc2)s1` [Example 726]: the IC50 lay in the range of 100 to 500 nM. Consider `CCC[C@H]1CC[C@H]([C@H]2CC[C@@H](c3nc(S(=O)(=O)Nc4cc(F)c(C(=O)O)cc4OC)cs3)CC2)CC1` [Example 733], for which the IC50 fell in the range of 100 to 500 nM.

`COc1cc(C(=O)O)ccc1NS(=O)(=O)c1csc(-c2ccc(C3=CCC(C(F)(F)F)CC3)cc2)n1` (centres unmarked) [Example 716]: the half-inhibitory concentration (IC50) is less than 100 nM.

On to `COc1cc(C(=O)O)c(F)cc1NS(=O)(=O)c1ncc(-c2ccc(C3CCCCC3)cc2)s1` [Example 616], for which the IC50 is 100 to 500 nM. Turning to `COc1cc(C(=O)O)ccc1NS(=O)(=O)c1csc(N2CCCC(NCc3ccccc3)C2)n1` (centres unmarked) [Example 273], the half-inhibitory concentration (IC50) was 1000 to 100000 nM. Take `CCCCC[C@H]1CC[C@H](c2ccc(-c3nc(S(=O)(=O)Nc4ccc(C(=O)O)cc4OC)cs3)c(F)c2)CC1` [Example 707]: the IC50 lay in the range of 100 to 500 nM.

`COc1cc(C(=O)O)ccc1NS(=O)(=O)c1csc(N2CCC(Cc3ccccc3)CC2)n1` [Example 260]: the IC50 is 1000 to 100000 nM.

With `COc1cc(C(=O)O)c(F)cc1NS(=O)(=O)c1csc(-c2ccc(-c3ccc4ncccc4c3)cc2)n1` [Example 639], the IC50 was less than 100 nM.

As for `COc1cc(C(=O)O)c(F)cc1NS(=O)(=O)c1cnc(-c2ccc(C3=CCC(C(C)(C)C)CC3)cc2)s1` (centres unmarked) [Example 717], the half-maximal inhibitory concentration (IC50) was less than 100 nM.

Regarding `O=S(=O)(Nc1ccc(O)cc1O)c1cnc(-c2ccc(F)cc2)s1` [Example 109], the IC50 fell in the range of 1000 to 100000 nM. The value for `COc1cc(C(=O)O)ccc1NS(=O)(=O)c1csc(C#Cc2ccc(C(N)=O)cc2)n1` [Example 224] was 1000 to 100000 nM; that for `COc1cc(C(=O)O)c(F)cc1NS(=O)(=O)c1csc(-c2ccc(C3=CCC(C(C)(C)C)CC3)cc2)n1` (centres unmarked) [Example 747] was less than 100 nM; that for `Cc1cc(NS(=O)(=O)c2cnc(-c3ccc(F)cc3)s2)ccc1C(=O)O` [Example 19] was 500 to 1000 nM. The value for `COc1cc(C(=O)O)c(F)cc1NS(=O)(=O)c1csc(-c2ccc(C3CCC(C)(C)CC3)cc2OC)n1` [Example 539] was less than 100 nM.

With `COc1cc(C(=O)O)ccc1NS(=O)(=O)c1coc(-c2ccc(C(F)(F)F)cc2)n1` [Example 414], the IC50 was less than 100 nM.

On to `COc1cc(C(=O)O)c(F)cc1NS(=O)(=O)c1csc(-c2ccc(C3CCC(C)(C)CC3)c(OC(C)C)c2F)n1` [Example 567], for which the half-maximal inhibitory concentration (IC50) is less than 100 nM. As for `CC[C@H]1CC[C@H](c2ccc(-c3ccnc(S(=O)(=O)Nc4cc(F)c(C(=O)O)cc4OC)c3)cc2)CC1` [Example 640], the concentration for half-maximal inhibition (IC50) was 100 to 500 nM.

As for `COc1cc(C(=O)O)ccc1NS(=O)(=O)c1csc(-c2cccc(C#N)c2)n1` [Example 129], the half-maximal inhibitory concentration (IC50) is 1000 to 100000 nM.

Take `COc1cc(C(=O)O)c(F)cc1NS(=O)(=O)c1coc(-c2ccc([C@H]3CC[C@H](C(C)C)CC3)cc2C(F)(F)F)n1` [Example 674]: the IC50 is less than 100 nM. Turning to `COc1cc(C(=O)O)c(F)cc1NS(=O)(=O)c1csc(-c2ccc(C3CCC(C(F)(F)F)CC3)c(OC(C)C)c2F)n1` (centres unmarked) [Example 812], the half-inhibitory concentration (IC50) was less than 100 nM. With `COc1cc(C(=O)O)ccc1NS(=O)(=O)c1csc(C#Cc2ccc(OC(F)(F)F)cc2)n1` [Example 226], the IC50 is 100 to 500 nM.

As for `COc1cc(C(=O)O)ccc1NS(=O)(=O)c1csc(-c2ccc(O)cc2)n1` [Example 128], the half-maximal inhibitory concentration (IC50) fell in the range of 100 to 500 nM.

With `COc1cc(C(=O)O)c(F)cc1NS(=O)(=O)c1csc(-c2ccc(-c3ccc(C45CC6C[C@H](C4)C[C@H](C6)C5)cc3)c(C(F)(F)F)c2)n1` [Example 738], the IC50 was in the range of 100 to 500 nM.

As for `COc1cc(C(=O)O)c(F)cc1NS(=O)(=O)c1csc(-c2ccc(C3=CCC(C)(C)CC3)c(C(F)(F)F)c2)n1` [Example 515], the half-inhibitory concentration (IC50) is less than 100 nM.

Regarding `COc1cc(C(=O)O)c(F)cc1NS(=O)(=O)c1ccn(-c2ccc([C@H]3CC[C@@H](C(C)C)CC3)cc2)n1` [Example 693], the half-inhibitory concentration (IC50) was 100 to 500 nM. As for `COc1cc(C(=O)O)ccc1NS(=O)(=O)c1csc(N2CCCC(c3ccc(C(F)(F)F)cc3)C2)n1` (centres unmarked) [Example 293], the concentration for half-maximal inhibition (IC50) is 1000 to 100000 nM. The value for `COc1cc(C(=O)O)c(F)cc1NS(=O)(=O)c1coc(-c2ccc(C3=CCC(C)(C)CC3)cc2)n1` [Example 482] was less than 100 nM; that for `COc1cc(C(=O)O)ccc1NS(=O)(=O)c1csc(N2CCN(c3ccc(OC(F)(F)F)cc3)C(=O)C2)n1` [Example 266] was 1000 to 100000 nM.

As to `COc1cc(C(=O)O)c(F)cc1NS(=O)(=O)c1ccc2sc(-c3ccc(C4CCCCC4)cc3C(F)(F)F)nc2c1` [Example 703], the IC50 lay within 500 to 1000 nM. Regarding `COc1ccc(OC(F)(F)F)cc1C#Cc1nc(S(=O)(=O)Nc2ccc(C(=O)O)cc2OC)cs1` [Example 402], the IC50 lay within 100 to 500 nM. The value for `COc1cc(C(=O)O)ccc1NS(=O)(=O)c1cc(-c2ccc(C3CCCCC3)cc2)ccc1F` [Example 435] was 500 to 1000 nM; that for `COc1cc(C(=O)O)c(F)cc1NS(=O)(=O)c1csc(-c2ccc(-c3ccc4[nH]ccc4c3)cc2)n1` [Example 638] was less than 100 nM; that for `COc1cc(C(=O)O)ccc1NS(=O)(=O)c1ccc(-c2ccc(-c3ccccc3)cc2)s1` [Example 198] was 500 to 1000 nM. Turning to `COc1cc(C(=O)O)c(F)cc1NS(=O)(=O)c1ncc(-c2ccc(C3=CCC(C(C)(C)C)CC3)cc2)s1` (centres unmarked) [Example 633], the 50% inhibitory concentration (IC50) fell in the range of 100 to 500 nM. Take `COc1cc(C(=O)O)ccc1NS(=O)(=O)c1cnc(-c2ccc(C3=CC(C)(C)CC(C)(C)C3)cc2)s1` [Example 708]: the half-inhibitory concentration (IC50) fell in the range of 100 to 500 nM. Next, `O=C(O)c1ccc2c(c1)CN(S(=O)(=O)c1ccc(F)cc1)C2` [Example 11]: more than 100000 nM; `COc1cc(C(=O)O)c(F)cc1NS(=O)(=O)c1ccc(-c2ccc(C(F)(F)F)cc2)s1` [Example 230]: 100 to 500 nM; `COc1cc(C(=O)O)c(F)cc1NS(=O)(=O)c1csc(-c2ccc(-c3ccc(C4(C(F)(F)F)CC4)cc3)cc2C(F)(F)F)n1` [Example 794]: less than 100 nM. Next, `COc1cc(C(=O)O)c(OC)cc1NS(=O)(=O)c1csc(-c2ccc(C3CCC(C)(C)CC3)cc2C(F)(F)F)n1` [Example 680]: less than 100 nM; `COc1cc(C(=O)O)ccc1NS(=O)(=O)c1cnc(-c2ccc(F)cc2)s1` [Example 23]: less than 100 nM; `COc1cc(C(=O)O)cc2c1N(S(=O)(=O)c1cnc(-c3ccc(F)cc3)s1)CCC2` [Example 132]: 1000 to 100000 nM. Turning to `COc1cc(C(=O)O)ccc1NS(=O)(=O)N1CCN(C2CCCC2)CC1` [Example 315], the 50% inhibitory concentration (IC50) fell in the range of 1000 to 100000 nM. Next, `COc1cc(C#N)ccc1NS(=O)(=O)c1cnc(-c2ccc(F)cc2)s1` [Example 123]: 1000 to 100000 nM. For `COc1cc(C(=O)O)c(NC(C)=O)cc1NS(=O)(=O)c1csc(-c2ccc(C3CCC(C)(C)CC3)cc2C(F)(F)F)n1` [Example 695], the IC50 lay in the range of 1000 to 100000 nM. In the case of `O=C(O)c1cccc(NS(=O)(=O)c2cnc(-c3ccc(F)cc3)s2)c1` [Example 17], the concentration for half-maximal inhibition (IC50) is more than 100000 nM.

On to `COc1cc(C(=O)O)ccc1NS(=O)(=O)c1coc(-c2ccc(C3CCC(C)(C)CC3)cc2)n1` [Example 420], for which the IC50 fell in the range of 100 to 500 nM. As to `COc1cc(C(=O)O)ccc1NS(=O)(=O)c1cccc(-c2ccc(C3=CCC(C(F)(F)F)CC3)cc2)c1F` (centres unmarked) [Example 471], the IC50 was 100 to 500 nM.

On to `COc1cc(C(=O)O)c(F)cc1NS(=O)(=O)c1csc(-c2ccc(C3CCC(C)(C)CC3)cc2)n1` [Example 372], for which the IC50 was less than 100 nM.

A word on the IC50: it is the concentration that inhibits the measured activity by half.
